The values below come from PubChem BioAssay (NCI).

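Cells were grown in 96-well plates and exposed to each compound for 48 hours at five concentrations; endpoints were interpolated linearly between bracketing concentrations, or set to the highest concentration if not reached. Definition used: TGI = concentration required for complete inhibition of growth.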 Where a SMILES comes first, the peptide text is derived from it. The star is where a group is joined. Cbz = O=C(OCc1ccccc1)*

What all share (test): NCI tumour cell line growth inhibition, 48 h
In assay [1] the test system is ACHN renal.
For assay [2], the system named is KM12 colon.
Assay [3] concerns M14 melanoma.
Assay [4] concerns NCI-H226 lung.
The test system of assay [5] is NCI-H522 lung.
The test system of assay [6] is RPMI-8226 leukemia.
The subject of assay [7] is SNB-19 CNS.
For assay [8], the system named is U251 CNS.
Assay [9] deals with DU-145 prostate.
The test system of assay [10] is IGROV1 ovarian.

In the case of `O=C1CSC(C(N=Nc2ccc(Cl)cc2)c2nc3ccccc3[nH]2)=N1` (stereo not given), the TGI was above 100 µM in assay [1]; above 100 µM in assay [2]; above 100 µM in [3]; 52 µM in assay [4]; 71.1 µM in [5]; above 100 µM in assay [6]. Further, the TGI in assay [7] and in [8] was above 100 µM in each case.

As to `COc1cc2cc(C(=O)N3CC(CCl)c4c3cc(O)c3ccccc43)[nH]c2c(OC)c1OC` (stereo not given), the TGI in assay [9] is above 50 µM; in [2], above 50 µM; in [3], below 0.005 µM; in assay [5], 0.155 µM; in [6] it was above 50 µM; in assay [7], 1.12 µM. Further, in assay [8], the TGI is 24.6 µM.

As to `CCCCc1c2c(nc3c1CC/C(=C\c1ccc([N+](=O)[O-])cc1)C3=O)CCCC2`, the TGI in assay [1] was determined as 3.28 µM; in assay [10] it was 3.24 µM; in assay [2], 3.52 µM; in assay [3], 3.34 µM; in assay [4], 6.5 µM; in assay [5], 2.84 µM. Moreover, the TGI in [6] amounted to 5.69 µM; in assay [7], 3.67 µM; in assay [8], 2.96 µM.

Take `COc1cc2cc3c4c(cc(OC)c(OC)c4c2cc1OC)CCN3C(=O)CCC(=O)O`: the TGI in assay [1], in [10], in assay [2], in [3], in assay [4] and in assay [5] was above 100 µM each time. Besides, the TGI in assay [6], in [7] and in assay [8] was above 100 µM each time.

As to `Cc1c(-c2ccc(O)c(O)c2)oc(=O)c2c(O)cccc12`, the TGI in assay [1] was above 100 µM; in assay [9], 47.2 µM; in assay [10] it was 20.1 µM; in assay [2] it was 24.2 µM; in assay [3] it was 20.7 µM; in assay [5], 15.5 µM. The TGI in [6] stood at 50 µM; in assay [7] it was 36.1 µM; in assay [8], 26.1 µM.

On to `CC(C)N(/C(F)=N\C(=O)Nc1ccccc1C(F)(F)F)C(C)C`, for which the TGI in assay [1], in assay [10], in assay [2], in assay [3], in [4] and in [6] was above 100 µM in each case. The TGI in assay [7] and in [8] was above 100 µM in each case.

For `CC(C)[C@](O)(C(=O)OCC1=CCN2CC[C@@H](O)[C@@H]12)[C@H](C)O`, the TGI in assay [10], in assay [2], in assay [4], in assay [5], in [6] and in assay [7] was above 375 µM throughout. The same compound had a TGI in assay [8] above 375 µM.

As for `CCN(CC)CC(=O)Nc1ccc2c(c1)C(=O)c1ccc(NC(=O)CN(CC)CC)cc1C2=O`, the TGI was 73.3 µM in assay [1]; 51.6 µM in assay [10]; 70 µM in assay [2]; 36.8 µM in assay [3]; 43.2 µM in [5]; above 100 µM in [6]. For the same compound, the TGI in assay [7] is 81.3 µM; in [8], 47 µM.

With `COc1ccc(-c2nc3c(nc2-c2ccc(OC)cc2)N(C)S(=O)(=O)N=C3N)cc1`, the TGI in [1] is 80 µM; in [10] it was above 100 µM; in assay [2], 92.2 µM; in [3] it was above 100 µM; in [5] it was 36 µM; in assay [6] it was 40.6 µM. The TGI in assay [7] and in [8] was above 100 µM throughout.

Regarding `Cc1cc(C)c(C(=O)/C=C/c2ccccc2)c(C)c1`, the TGI in assay [1] was above 100 µM; in assay [10], above 100 µM; in assay [2] it was above 100 µM; in assay [3], 40.3 µM; in assay [4] it was 43.1 µM; in assay [5], 46.1 µM. Further, the TGI in assay [6] was 90.5 µM; in [7], 75.3 µM; in assay [8], 29.4 µM.

With `CCCCS(=O)CC(CO)NC(=O)/C=C/c1c(C)[nH]c(=O)[nH]c1=O` (stereo not given), the TGI in assay [10] came out at 35.4 µM; in [2] it was 49.7 µM; in [4], 34 µM; in assay [5], 21.4 µM; in [6] it was 59.2 µM; in [7], 24.8 µM. Further, the TGI in assay [8] worked out at 26.7 µM.

With `COc1ccc2c(c1)CCN1C3=C(CCC3)C(=O)C[C@@H]21`, the TGI in assay [1], in assay [10], in assay [2], in assay [3], in [4] and in [5] was above 100 µM in each case. For the same compound, the TGI in assay [6], in assay [7] and in assay [8] was above 100 µM in each case.

Regarding `O=C1C=C2CC[C@H]3[C@@H]4CC[C@H](Oc5c6ccccc6nc6ccccc56)[C@H]4CC[C@@H]3[C@H]2CC1`, the TGI in [1], in assay [9], in [10], in assay [2], in assay [3] and in assay [4] was above 100 µM in each case. The TGI in [7] and in [8] was above 100 µM in each case.

In the case of `Cn1c(=O)c2nc(NCCO)cnc2n(C)c1=O`, the TGI in assay [1] is above 100 µM; in [10] it was above 100 µM; in assay [2], above 100 µM; in assay [3], above 100 µM; in assay [5], 46.4 µM; in assay [6], above 100 µM. Further, the TGI in assay [7] and in [8] was above 100 µM throughout.

As for `Clc1cccc2c1OCC1C(c3ccccc3)=NN(c3ccccc3)C21` (stereo not given), the TGI in assay [1], in [10], in [2], in assay [5], in assay [6] and in [7] was above 100 µM each time. The same compound registered a TGI in assay [8] above 100 µM.

For `CCOC(=O)CNC(=O)C(C)NC(=O)C(NC(=O)OCc1ccccc1)C(C)C` (stereo not drawn) (Cbz-Val-Ala-Gly-OEt; configuration not given here), the TGI in [1], in [9], in assay [10], in assay [2], in [3] and in [5] was above 100 µM in each case. The TGI in assay [6], in assay [7] and in assay [8] was above 100 µM throughout.
